In PMC7056649 (Heliyon, 2020):

Legend:
[1] = system: membrane-bound α-glucosidases on differentiated Caco-2 cells; test: Membrane bound α-glucosidase inhibitory activity in differentiated Caco-2 cells; format: cell-based, human; settings: 25 mM maltose, 0.1-100 μg/ml, 4 h; comparison in words
[2] = target: T1, porcine pancreatic α-amylase (Sus scrofa, UniProt P00690); test: α-Amylase inhibitory activity; format: biochemical; settings: up to 600 μg/mL
T1 sequence (P00690 16-511): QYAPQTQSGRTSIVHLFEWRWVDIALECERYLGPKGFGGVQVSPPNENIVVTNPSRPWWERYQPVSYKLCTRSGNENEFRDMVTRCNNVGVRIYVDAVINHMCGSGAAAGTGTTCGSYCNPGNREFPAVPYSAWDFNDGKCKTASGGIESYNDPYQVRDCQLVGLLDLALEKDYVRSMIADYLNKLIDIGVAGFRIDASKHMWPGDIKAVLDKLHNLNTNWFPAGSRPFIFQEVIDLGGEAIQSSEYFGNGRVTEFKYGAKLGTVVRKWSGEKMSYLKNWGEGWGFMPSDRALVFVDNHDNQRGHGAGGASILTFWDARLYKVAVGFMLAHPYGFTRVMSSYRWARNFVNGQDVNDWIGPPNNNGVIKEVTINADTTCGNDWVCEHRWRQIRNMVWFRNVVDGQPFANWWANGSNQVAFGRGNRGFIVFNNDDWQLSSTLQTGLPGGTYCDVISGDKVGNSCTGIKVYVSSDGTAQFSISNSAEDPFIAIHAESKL

[3] = target: Saccharomyces cerevisiae α-glucosidase (Saccharomyces cerevisiae, UniProt P53341); test: α-Glucosidase inhibitory activity and kinetic analysis; format: biochemical; settings: for Ki: yeast α-glucosidase hydrolysis of PNPG; for Mode of Inhibition: PNPG substrate, determined by Lineweaver-Burk plots
Saccharomyces cerevisiae α-glucosidase, sequence (P53341 whole entry): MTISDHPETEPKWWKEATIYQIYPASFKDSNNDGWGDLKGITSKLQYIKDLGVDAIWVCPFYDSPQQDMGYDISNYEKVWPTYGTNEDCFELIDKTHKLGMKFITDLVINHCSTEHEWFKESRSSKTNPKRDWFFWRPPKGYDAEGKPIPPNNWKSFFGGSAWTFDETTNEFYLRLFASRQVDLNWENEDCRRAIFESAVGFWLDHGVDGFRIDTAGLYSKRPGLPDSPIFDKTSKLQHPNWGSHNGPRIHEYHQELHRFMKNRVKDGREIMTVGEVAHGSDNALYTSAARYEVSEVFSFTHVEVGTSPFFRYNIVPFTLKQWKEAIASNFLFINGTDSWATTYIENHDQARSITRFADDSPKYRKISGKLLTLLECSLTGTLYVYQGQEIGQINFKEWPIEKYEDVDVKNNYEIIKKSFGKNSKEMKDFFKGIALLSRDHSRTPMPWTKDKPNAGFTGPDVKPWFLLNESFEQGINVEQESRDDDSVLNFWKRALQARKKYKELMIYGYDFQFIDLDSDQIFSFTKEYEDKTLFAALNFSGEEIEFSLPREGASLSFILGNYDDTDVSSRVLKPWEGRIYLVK

[4] = system: Caco-2 cells; settings: ref Ahn et al., 2017, Mei et al., 2012; cited from earlier work

With `C[C@H]1O[C@H](O[C@H]2[C@H](O)[C@@H](O)[C@@H](O[C@H]3[C@H](O)[C@@H](O)C(O)O[C@@H]3CO)O[C@@H]2CO)[C@H](O)[C@@H](O)[C@@H]1N[C@H]1C=C(CO)[C@@H](O)[C@H](O)[C@H]1O` (stereo partly drawn) [Acarbose, acarbose, reference compound] the “inhibition of maltose hydrolysis in differentiated Caco-2 cells” value [1] was “far more susceptible to acarbose”.

In the case of `Oc1cc(O)cc(/C=C/c2ccc(O)cc2O)c1` [Oxyresveratrol, trans-3,5,2′,4′-tetrahydroxystilbene], the “inhibition of maltose hydrolysis in differentiated Caco-2 cells” value [1] is reported as “lesser potency compared to acarbose”, the “inhibition of α-amylase” value [2] is reported as “no detectable inhibition” and the IC50 ([3]; IC50, substrate PNPG) is reported as 203 µM. The Ki ([3]; Dixon plots, value in brackets) was 223 µM, the Ki ([3]; determined by Dixon plots) was 223 µM and the “Mode of Inhibition” value [3] was “Non-competitive”. For the same molecule, the “Mode of Inhibition” value ([3]; listed as oxyresveratrol) was “non-competitively” and the “re-export rate from Caco-2 cells” value [4] was “high”.
